Results published in patent publication US20230085307A1, “PYRIDAZINONE COMPOUND AND HERBICIDE” (NISSAN CHEMICAL CORPORATION, priority 2019, published 2023).

Tests used:
oval-leafed pondweed = experiment: Test Example 1: herbicidal activity, application before weed generation under submerged conditions (Table 16, symbol C); type: in vivo, oval-leafed pondweed (Monochoria vaginalis); conditions: amount of applied herbicide 320 g/ha
In short: (§1)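 Emulsion formulation, water-diluted to set dose, was put onto the flooded surface (4 cm depth, alluvial soil) the same day weeds were sown and 2.5-leaf rice transplanted. After 3 weeks at 25-30 °C under glass, each species was rated 0 (≤5% kill) to 5 (≥90% kill).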

barnyard grass [1] = experiment: Test Example 3: herbicidal effect by foliage application, Wagner pot (Table 18, symbol H); type: in vivo, barnyard grass (Echinochloa crus-galli); conditions: amount of applied herbicide 320 g/ha
In short: (§2)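 Plants were sown in alluvial soil held under 0.1–0.5 cm standing water and grown 14 days in a greenhouse at 25–30 °C. An emulsifiable formulation, water-diluted to the set dose, was then sprayed onto the foliage, and effects were scored three weeks later using previously defined criteria.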

rice flat sedge = experiment: Test Example 3: herbicidal effect by foliage application, Wagner pot (Table 18, symbol E); type: in vivo, rice flat sedge (Cyperus iria); conditions: amount of applied herbicide 320 g/ha
In short: as §2

persian speedwell = experiment: Test Example 5: herbicidal effect by foliage application, plastic box (Table 20, symbol R); type: in vivo, Persian speedwell (Veronica persica); conditions: foliage application, 320 g/ha, three weeks after application
In short: (§3)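 Plants sown in sterilized diluvial soil and grown 14 days in a greenhouse at 25° C to 30° C, then sprayed on the foliage with the compound's emulsion diluted in water to a predetermined herbicide amount. Injury to weeds and crops scored three weeks after application on a visual rating scale.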

redroot pigweed = experiment: Test Example 4: herbicidal effect by soil treatment (Table 19, symbol N); type: in vivo, redroot pigweed (Amaranthus retroflexus); conditions: amount of applied herbicide 320 g/ha
In short: (§4)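 Three weeks of greenhouse growth at 25° C. to 30° C. followed a uniform surface spray of water-diluted emulsion at a predetermined herbicide amount. Seeds had been sown beforehand under about 1.5 cm of sterilized diluvial soil. Grading followed criteria set out in an earlier test.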

Japanese bulrush = experiment: Test Example 1: herbicidal activity, application before weed generation under submerged conditions (Table 16, symbol B); type: in vivo, Japanese bulrush (Schoenoplectus juncoides); conditions: amount of applied herbicide 320 g/ha
In short: as §1

windgrass [2] = experiment: Test Example 4: herbicidal effect by soil treatment (Table 19, symbol L); type: in vivo, windgrass (Apera spica-venti); conditions: amount of applied herbicide 320 g/ha
In short: as §4

southern crabgrass = experiment: Test Example 4: herbicidal effect by soil treatment (Table 19, symbol F); type: in vivo, southern crabgrass (Digitaria ciliaris); conditions: amount of applied herbicide 320 g/ha
In short: as §4

Chinese sprangletop = experiment: Test Example 3: herbicidal effect by foliage application, Wagner pot (Table 18, symbol D); type: in vivo, chinese sprangletop (Leptochloa chinensis); conditions: amount of applied herbicide 320 g/ha
In short: as §2

velvetleaf = experiment: Test Example 4: herbicidal effect by soil treatment (Table 19, symbol M); type: in vivo, velvetleaf (Abutilon theophrasti); conditions: amount of applied herbicide 320 g/ha
In short: as §4

windgrass [3] = experiment: Test Example 5: herbicidal effect by foliage application, plastic box (Table 20, symbol L); type: in vivo, windgrass (Apera spica-venti); conditions: foliage application, 320 g/ha, three weeks after application
In short: as §3

wild oat = experiment: Test Example 5: herbicidal effect by foliage application, plastic box (Table 20, symbol I); type: in vivo, wild oat (Avena fatua); conditions: foliage application, 320 g/ha, three weeks after application
In short: as §3

green foxtail [4] = experiment: Test Example 4: herbicidal effect by soil treatment (Table 19, symbol G); type: in vivo, green foxtail (Setaria viridis); conditions: amount of applied herbicide 320 g/ha
In short: as §4

lambsquarters = experiment: Test Example 5: herbicidal effect by foliage application, plastic box (Table 20, symbol O); type: in vivo, lambsquarters (Chenopodium album); conditions: foliage application, 320 g/ha, three weeks after application
In short: as §3

barnyard grass [5] = experiment: Test Example 4: herbicidal effect by soil treatment (Table 19, symbol H); type: in vivo, barnyard grass (Echinochloa crus-galli); conditions: amount of applied herbicide 320 g/ha
In short: as §4

barnyard grass [6] = experiment: Test Example 5: herbicidal effect by foliage application, plastic box (Table 20, symbol H); type: in vivo, barnyard grass (Echinochloa crus-galli); conditions: foliage application, 320 g/ha, three weeks after application
In short: as §3

green foxtail [7] = experiment: Test Example 5: herbicidal effect by foliage application, plastic box (Table 20, symbol G); type: in vivo, green foxtail (Setaria viridis); conditions: foliage application, 320 g/ha, three weeks after application
In short: as §3

| SMILES | Herbicidal effect, C: oval-leafed pondweed (oval-leafed pondweed) | herbicidal effect on H: barnyard grass (barnyard grass [1]) | herbicidal effect on E: rice flat sedge (rice flat sedge) | R: persian speedwell, herbicidal effect grade (persian speedwell) | herbicidal effect, N: redroot pigweed (redroot pigweed) | Herbicidal effect, B: Japanese bulrush (Japanese bulrush) | herbicidal effect, L: windgrass (windgrass [2]) | herbicidal effect, F: southern crabgrass (southern crabgrass) | herbicidal effect on D: Chinese sprangletop (Chinese sprangletop) | herbicidal effect, M: velvetleaf (velvetleaf) | L: windgrass, herbicidal effect grade (windgrass [3]) | I: wild oat, herbicidal effect grade (wild oat) | herbicidal effect, G: green foxtail (green foxtail [4]) | O: lambsquarters, herbicidal effect grade (lambsquarters) | herbicidal effect, H: barnyard grass (barnyard grass [5]) | H: barnyard grass, herbicidal effect grade (barnyard grass [6]) | G: green foxtail, herbicidal effect grade (green foxtail [7]) |
| --- | --- | --- | --- | --- | --- | --- | --- | --- | --- | --- | --- | --- | --- | --- | --- | --- | --- |
| CCCC(=O)Oc1c(C)nn(C)c(=O)c1-c1c(-c2ccc(F)cc2OCC)sc2cc(F)ccc12 [3-012] | 4 (Herbicidal rate of 70% or more and less than 90%) | 5 (Herbicidal rate of 90% or more (almost completely withered)) | 5 (Herbicidal rate of 90% or more (almost completely withered)) | 5 (Herbicidal rate of 90% or more (almost completely withered)) | 4 (Herbicidal rate of 70% or more and less than 90%) | 5 (Herbicidal rate of 90% or more (almost completely withered)) | 5 (Herbicidal rate of 90% or more (almost completely withered)) | 3 (Herbicidal rate of 40% or more and less than 70%) | 2 (Herbicidal rate of 20% or more and less than 40%) | 0 (Herbicidal rate of 5% or less (almost no effect)) | 5 (Herbicidal rate of 90% or more (almost completely withered)) | 5 (Herbicidal rate of 90% or more (almost completely withered)) | 3 (Herbicidal rate of 40% or more and less than 70%) | 4 (Herbicidal rate of 70% or more and less than 90%) | 3 (Herbicidal rate of 40% or more and less than 70%) | 5 (Herbicidal rate of 90% or more (almost completely withered)) | 4 (Herbicidal rate of 70% or more and less than 90%) |
| Cc1nn(C)c(=O)c(-c2c(-c3ccc4c(c3)OCCO4)sc3cc(F)ccc23)c1O [3-013] | 2 (Herbicidal rate of 20% or more and less than 40%) | 4 (Herbicidal rate of 70% or more and less than 90%) | 5 (Herbicidal rate of 90% or more (almost completely withered)) | 5 (Herbicidal rate of 90% or more (almost completely withered)) | 4 (Herbicidal rate of 70% or more and less than 90%) | 3 (Herbicidal rate of 40% or more and less than 70%) | 0 (Herbicidal rate of 5% or less (almost no effect)) | 4 (Herbicidal rate of 70% or more and less than 90%) | 4 (Herbicidal rate of 70% or more and less than 90%) | 3 (Herbicidal rate of 40% or more and less than 70%) | 0 (Herbicidal rate of 5% or less (almost no effect)) | 0 (Herbicidal rate of 5% or less (almost no effect)) | 4 (Herbicidal rate of 70% or more and less than 90%) | 5 (Herbicidal rate of 90% or more (almost completely withered)) | 5 (Herbicidal rate of 90% or more (almost completely withered)) | 3 (Herbicidal rate of 40% or more and less than 70%) | 4 (Herbicidal rate of 70% or more and less than 90%) |
| CCCC(=O)Oc1c(C)nn(C)c(=O)c1-c1c(-c2ccc3c(c2)OCCO3)sc2cc(F)ccc12 [3-014] | 5 (Herbicidal rate of 90% or more (almost completely withered)) | 5 (Herbicidal rate of 90% or more (almost completely withered)) | 4 (Herbicidal rate of 70% or more and less than 90%) | 5 (Herbicidal rate of 90% or more (almost completely withered)) | 3 (Herbicidal rate of 40% or more and less than 70%) | 3 (Herbicidal rate of 40% or more and less than 70%) | 0 (Herbicidal rate of 5% or less (almost no effect)) | 0 (Herbicidal rate of 5% or less (almost no effect)) | 0 (Herbicidal rate of 5% or less (almost no effect)) | 0 (Herbicidal rate of 5% or less (almost no effect)) | 0 (Herbicidal rate of 5% or less (almost no effect)) | 1 (Herbicidal rate of 5% or more and less than 20%) | 0 (Herbicidal rate of 5% or less (almost no effect)) | 5 (Herbicidal rate of 90% or more (almost completely withered)) | 0 (Herbicidal rate of 5% or less (almost no effect)) | 3 (Herbicidal rate of 40% or more and less than 70%) | 3 (Herbicidal rate of 40% or more and less than 70%) |
| CCCC(=O)Oc1c(C)nn(C)c(=O)c1-c1c(-c2ccc(OC(C)C)cc2)sc2cc(F)ccc12 [3-020] | 2 (Herbicidal rate of 20% or more and less than 40%) | 4 (Herbicidal rate of 70% or more and less than 90%) | 5 (Herbicidal rate of 90% or more (almost completely withered)) | 5 (Herbicidal rate of 90% or more (almost completely withered)) | 4 (Herbicidal rate of 70% or more and less than 90%) | 3 (Herbicidal rate of 40% or more and less than 70%) | 0 (Herbicidal rate of 5% or less (almost no effect)) | 0 (Herbicidal rate of 5% or less (almost no effect)) | 3 (Herbicidal rate of 40% or more and less than 70%) | 0 (Herbicidal rate of 5% or less (almost no effect)) | 0 (Herbicidal rate of 5% or less (almost no effect)) | 0 (Herbicidal rate of 5% or less (almost no effect)) | 0 (Herbicidal rate of 5% or less (almost no effect)) | 3 (Herbicidal rate of 40% or more and less than 70%) | 0 (Herbicidal rate of 5% or less (almost no effect)) | 2 (Herbicidal rate of 20% or more and less than 40%) | 0 (Herbicidal rate of 5% or less (almost no effect)) |
